Values joined by “and” are separate entries in the source; they are usually repeats but may differ in a detail not shown here. Identical values can stand only once.
Legend:
[1] = test system: GHOST.CCR5 and GHOST.CXCR4 indicator cells (R5-tat, X4-tat); test: Rapid Cell Fusion Assay for coreceptor utilization (CAT-ELISA); type: cell-based; details: cloned patient env gene expressed on HL3T1 cells, fusion for 48 hours
Description: Viral coreceptor usage was separately evaluated through the use of a Rapid Cell Fusion Assay. This assay enables determination of coreceptor usage from cloned HIV env gene sequences obtained directly from patient samples (e.g. blood, mucosal tissue). This method allows for greater efficiency in determination of viral coreceptor usage, by circumventing the need for cultivation of primary isolates. The Rapid Cell Fusion Assay can advantageously produce a result within one week after obtaining a patient sample. In addition, the Rapid Cell Fusion Assay allows study of patient-derived virus obtained from sites other than the peripheral blood, particularly those sites from which cultured virus cannot be obtained. For example, while circulating macrophages and CD4^+ T cells are the dominant reservoir of HIV-1, viral populations distinct from those in the peripheral blood exist in many reservoirs, including the genital tract.
The HL3T1 cell line was derived by stable transfection of parental HeLa cells with a chloramphenicol acetyltransferse (CAT) reporter construct containing a CAT gene is linked to an HIV-1 LTR promoter. The HL3T1 cells produce CAT protein only upon introduction of an active HIV-1 Tat protein. HL3T1 cells were transfected with a cloned env gene derived from a patient of interest. The cloned env gene product is expressed on the surface of the HL3T1 cells.
Indicator cell lines GHOST.CCR5 and GHOST.CXCR4 (respectively hereinafter “R5-tat” and “X4-tat”) cells were transfected with pSV2tat72, a construct expressing high levels of HIV-1 Tat under the control of the SV40 early promoter.
HL3T1 cells containing a cloned patient env gene were fused to R5-tat and X4-tat cells. Cell surface envelope protein variants will selectively interact with either CCR5 or CXCR4. Fusion only occurs when an HL3T1 envelope protein interacts with an indicator cell expressing a compatible coreceptor. Therefore, HL3T1 cells will fuse with either R5-tat and X4-tat, depending on the patient's env gene specificity. To initiate fusion, transfected HL3T1 and R5-tat or X4-tat cells were mixed in 6-well plates at 37° C. and allowed to fuse for 48 hours. To quantitate fusion, the cells were lysed with 0.5% NP-40. Fusion of HL3T1 cells to R5-tat or X4-tat activated CAT gene expression. Aliquots of the cell lysates were monitored for CAT production using a commercially available kit (CAT-ELISA, Boehringer Mannheim).
Twenty-five clones from each sample were analyzed to ensure that the fusion assay reflected the heterogeneous nature of HIV-1 populations.

[2] = test system: HIV-1 strains using CCR5 versus CXCR4; test: QXR, proportion of patient HIV-1 using CCR5; type: in vivo, human; details: Status before combination therapy, single patient, on the listed anti-HIV therapy
Experimental: To quantitate HIV-1 coreceptor use, inventors constructed a variable, λ, as the proportion of strains using CCR5. This variable has since been renamed QXR. […] QXR values were assessed by utilizing qualitative assay data derived from primary isolates, biologic clones, and sequences of the V3 portion of the env gene. […] Thus, for the vast majority of virions, each virion uses either CCR5 or CXCR4. This relationship can be stated as a mixture
D=QXR(CCR5)+(1−QXR)(CXCR4); 0≦QXR≦1, where D is the distribution of viral phenotypes. By design, it is a binomial population.
QXR values were constructed by relating data derived from the same patient sample by using three different analyses: biologic cloning, V3 sequencing of patient-derived molecular clones, and qualitative assays of primary isolates. To construct QXR values, inventors first calculated the proportion of biologic and, if available, molecular clones using CCR5 at each time point, then linked the proportion to the qualitative coreceptor use score (− to 3+) of primary isolates obtained simultaneously. Data that were not available were interpolated. […]
The large number of biologic and molecular clones permitted derivation of a system to quantitate the proportion of virus in a clinical specimen that uses each coreceptor. […] By applying this method, it was determined the proportion of virus using each coreceptor for each patient over time. […]

[3] = test system: HIV-1; details: Status before combination therapy, single patient, on the listed anti-HIV therapy
Experimental: (§1) Coreceptor use was examined in twenty-two women who participated in two prospective studies of HIV-1 infection. Nineteen were enrolled in the Bronx-Manhattan site of Women's Interagency HIV Study (WIHS), a National Institutes of Health (NIH) multicenter study of the natural history of HIV-1 infection in women. Three took part in a study of HIV-1 pathogenesis performed at the Wadsworth Center of the New York State Department of Health in Albany, N.Y. Both studies included individuals with a broad spectrum of HIV-1 disease. The institutional review boards at each clinical site and the New York State Department of Health approved the investigation. Each woman provided informed consent at enrollment.
(§2) To examine the effect of combination antiretroviral therapy on HIV-1 coreceptor use, women infected with CXCR4 strains were sought.
Once the study population was selected, blood was drawn and separated into plasma and cell components (Anastos et al. (2000) J. AIDS Hum. Retro. (in press); Fang et al. (1995)). HIV-1 RNA in plasma was quantitated by using NucliSens (Organon Teknika Corp., Durham, N.C.), with a lower limit of quantitation of ˜80 copies/ml. The CCR5 genotype of each patient was determined as described (Samson et al. (1996)).
(§3) At that time, eight women were receiving antiretroviral therapy, primarily zidovudine monotherapy. While under study, however, 12 initiated new combination regimens; 9 received HAART (Group I) and 3 received two or more nucleoside analogues (Group II). […] In Table 1, “Before therapy” refers to data obtained at the visit immediately preceding initiation of new two or three drug antiretroviral therapy in Groups I & II. For Group III, data from the first time point are shown (a). “Follow-up” refers to data obtained at the first time point following the initiation of the anti-HIV therapy listed for Groups I & II.

[4] = test system: CD4+ cells; test: CD4+ cell count in women before and after antiretroviral therapy; type: in vivo, human; details: Status before combination therapy, single patient, on the listed anti-HIV therapy
Experimental: as §1, §2, §3

[5] = test system: V3 region of the env gene; test: Coreceptor use predicted from V3 loop sequences of plasma HIV-1 RNA molecular clones; details: number of molecular clones of virion-derived plasma HIV-1 RNA
Description: HIV-1 virions were isolated from plasma samples as described (Fang et al. (1996) J. AIDS Hum. Retro. 12:352-7). Reverse transcriptase polymerase chain reaction amplification produced a 920-bp amplicon spanning the V3 region of the env gene. Reaction conditions were controlled rigorously to minimize recombination and other artifacts (Fang et al. (1996)). Amplified products were cloned into a TOPO™ TA vector (Invitrogen, Carlsbad, Calif.), verified by restriction digestion, and sequenced. Alignment of the sequences was initially done using the PILEUP program in the GCG Suite (Genetics Computer Group, Madison, Wis.), then checked manually. Envelope sequences were used to predict coreceptor use on the basis of the overall charge of the V3 loop and the presence of basic or acidic residues at positions […] (Bhattacharyya et al. (1996); and Hung et al. (1999)).
These sequences predicted a pattern of coreceptor use that essentially paralleled the one obtained by using viral culture (Table 2B, Coreceptor use determined by cocultivation of PBMCs vs. sequence analysis of plasma HIV-1 RNA). […] At each time point, coreceptor use was assayed by co-cultivating PBMCs and determining the V3 loop sequence of virion-derived HIV-1 RNA.

Row | Compound | CORECEPTOR [1] | other results
1 | CTRPNDNIRKSVHIGPGQAFYATGDIIGDIRRAHC [AF10P97-2] | CCR5 | 
2 | CTRPNNNTITSIRIGPGQAFYATGSIIGNIRQAHC [AF9P2-3] | CCR5 | 
3 | CTRPSNNRRKSIHKGDQDKHSMEHDDVIGDIRKARC [AF6P-7] | negative | 
4 | CTRPNNNTRKSVHIGPGQAFYATGDIIGNIRKAHC [AF3P-4] | CCR5 | 
5 | CIRPNNNTRTSIRIGPGQAFYATGNIIGDIRQAYC [AF2P12-12] | CCR5 | 
6 | CTRPNNNTITSIRIGPGQAFYATGSIIGNTRQAHC [AF9P2-4] | CCR5 | 
7 | Cc1cn([C@H]2C[C@H](N=[N+]=[N-])[C@@H](CO)O2)c(=O)[nH]c1=O [AZT, zidovudine] |  | QXR, proportion of HIV-1 Using R5 [2]: 0.36 (2×) and 0.90 and 0.00 (2×); HIV-1 RNA, log copies per ml [3]: 5.30 log copies per ml and 4.94 log copies per ml and 5.58 log copies per ml and 5.04 log copies per ml and 5.23 log copies per ml; CD4+ count, cells per mm3 [4]: 188 cells per mm3 and 42 cells per mm3 and 259 cells per mm3 and 307 cells per mm3 and 43 cells per mm3; Distribution of Co-Receptor Use Predicted by V3 Loop Sequences, CCR5 [5]: 9; Distribution of Co-Receptor Use Predicted by V3 Loop Sequences, CXCR4 [5]: 4
8 | CTRPNNNTRKSVHIGPGQAFYATGDIIGNMRKAHC [AF3P-12] | CCR5 | 
9 | CTRPNNNTRKSVHIGPGQAFYATGDIIGNIRQAHC [AF3P-6] | CCR5 | 
10 | CTRPNNNTKKSVHIGPGQAFYATGDIIGDIRQAYC [AF5P-6] | CCR5 | 
11 | CTRPNDNIRKRVHIGPGQAFYATGDVIGDIRRAHC [AF10P97-4] | CXCR4 | 
12 | CIRPNNNTRTSIRIGPGQAFYATGNIIGGIRQAYC [AF2P12-2] | CCR5 | 
13 | CTRPNNNTRKSVHIGPGQAFYATGDIIGDIRQAYC [AF5P-5] | CCR5 | 
14 | CTRPINNRRKSIHIGPGQAFYGT.DDIIGDIRQAHC [AF6P-10] | CCR5 | 
15 | CIRPNNNTRTSIRIGPGQAFYATGNIVGDIRQAYC [AF2P12-11] | CCR5 | 
16 | CTRPNNNTRKSVHIGLGQAFYATGDIIGNIRKAHC [AF3P-9] | CCR5 | 
17 | CTRPSNNRRKSIHMGPGQAFYGT.DDIIGGIRKARC [AF6P-11] | CCR5 | 
18 | CIRPNNNTRTSIRIGPRQAFYATGNIIGDIRQAYC [AF2P12-10] | CXCR4 | 
19 | ........RKSVHIGPGQAFYATGDIIGNIRKAHC [AF3P-2] | negative | 
20 | Cc1cn([C@H]2C=C[C@@H](CO)O2)c(=O)[nH]c1=O [d4T, stavudine] |  | QXR, proportion of HIV-1 Using R5 [2]: 0.36; HIV-1 RNA, log copies per ml [3]: 5.28 log copies per ml; CD4+ count, cells per mm3 [4]: 9 cells per mm3
21 | CTRPSNNRRKSIHMGPGQAFYGT.DDIIGDIRKARC [AF6P-12] | CCR5 | 
22 | CTRPNNNTRKSVHIGPGQAFYATGDILGNIRQAHC [AF3P-11] | CCR5 | 
23 | CIRPNNNTRQSVHIGPGQALYTTEIIGDIRKAHC [AF7P-9] | CCR5 | 
24 | CTRPINNRRKSIHMGPGQAFYGT.DDIIGDIRKARC [AF6P-1] | CCR5 | 
